Results as given in ChEMBL document CHEMBL1817616, “Synthesis, characterization and biological evaluation of some 16β-azolyl-3β-amino-5α-androstane derivatives as potential anticancer agents” (Eur J Med Chem, 2011).

How the values were obtained:
HepG2 = assay: Anticancer activity against human HepG2 cells after 48 hrs by MTT assay; format: functional, cell-based; settings: HepG2, 48 h
HeLa = assay: Anticancer activity against human HeLa cells after 48 hrs by MTT assay; format: functional, cell-based
SW480 = assay: Anticancer activity against human SW480 cells after 48 hrs by MTT assay; format: functional, cell-based; settings: SW480, 48 h
A549 = assay: Anticancer activity against human A549 cells after 48 hrs by MTT assay; format: functional, cell-based; settings: A549, 48 h
SiHa = assay: Anticancer activity against human SiHa cells after 48 hrs by MTT assay; format: functional, cell-based
HEK293 = assay: Cytotoxicity against human HEK293 cells after 48 hrs by MTT assay; format: cell-based; settings: HEK293, 48 h

| SMILES | IC50 (HepG2) [µM] | IC50 (HeLa) [µM] | IC50 (SW480) [µM] | IC50 (A549) [µM] | IC50 (SiHa) [µM] | IC50 (HEK293) [µM] |
| --- | --- | --- | --- | --- | --- | --- |
| CC(=O)O[C@H]1[C@@H](n2cncn2)C[C@H]2[C@@H]3CC[C@H]4C[C@@H](N5CCCC5)CC[C@]4(C)[C@H]3CC[C@@]21C | > 50 | > 50 | > 50 | > 50 | > 50 | – |
| CC(=O)O[C@H]1[C@@H](n2cncn2)C[C@H]2[C@@H]3CC[C@H]4C[C@@H](N5CCCCC5)CC[C@]4(C)[C@H]3CC[C@@]21C | > 50 | > 50 | > 50 | > 50 | > 50 | – |
| CC(=O)O[C@H]1[C@@H](n2cncn2)C[C@H]2[C@@H]3CC[C@H]4C[C@@H](N5CCOCC5)CC[C@]4(C)[C@H]3CC[C@@]21C | 19.5 | 22.3 | > 50 | > 50 | > 50 | – |
| CC(=O)O[C@H]1[C@@H](n2cncn2)C[C@H]2[C@@H]3CC[C@H]4C[C@@H](N5CCN(C)CC5)CC[C@]4(C)[C@H]3CC[C@@]21C | 23.5 | > 50 | > 50 | 39.7 | > 50 | – |
| CCN(CC)[C@H]1CC[C@@]2(C)[C@@H](CC[C@@H]3[C@@H]2CC[C@@]2(C)[C@H]3C[C@H](n3cncn3)[C@@H]2OC(C)=O)C1 | > 50 | > 50 | > 50 | > 50 | > 50 | – |
| CC(=O)O[C@H]1[C@@H](n2cncn2)C[C@H]2[C@@H]3CC[C@H]4C[C@@H](N(C)c5ccccc5)CC[C@]4(C)[C@H]3CC[C@@]21C | 21.9 | 19.8 | > 50 | 12.3 | 37.1 | – |
| CC(=O)O[C@H]1[C@@H](n2cncn2)C[C@H]2[C@@H]3CC[C@H]4C[C@@H](N(C)Cc5ccccc5)CC[C@]4(C)[C@H]3CC[C@@]21C | 10.6 | 18.7 | > 50 | > 50 | 22.4 | – |
| CC(=O)O[C@H]1[C@@H](n2ccnn2)C[C@H]2[C@@H]3CC[C@H]4C[C@@H](N5CCCC5)CC[C@]4(C)[C@H]3CC[C@@]21C | > 50 | > 50 | > 50 | > 50 | > 50 | – |
| CC(=O)O[C@H]1[C@@H](n2ccnn2)C[C@H]2[C@@H]3CC[C@H]4C[C@@H](N5CCCCC5)CC[C@]4(C)[C@H]3CC[C@@]21C | > 50 | > 50 | > 50 | > 50 | > 50 | – |
| CC(=O)O[C@H]1[C@@H](n2ccnn2)C[C@H]2[C@@H]3CC[C@H]4C[C@@H](N5CCOCC5)CC[C@]4(C)[C@H]3CC[C@@]21C | > 50 | > 50 | 31.8 | 40.3 | 47.8 | – |
| CC(=O)O[C@H]1[C@@H](n2ccnn2)C[C@H]2[C@@H]3CC[C@H]4C[C@@H](N5CCN(C)CC5)CC[C@]4(C)[C@H]3CC[C@@]21C | > 50 | 38.1 | > 50 | > 50 | > 50 | – |
| CCN(CC)[C@H]1CC[C@@]2(C)[C@@H](CC[C@@H]3[C@@H]2CC[C@@]2(C)[C@H]3C[C@H](n3ccnn3)[C@@H]2OC(C)=O)C1 | > 50 | > 50 | > 50 | > 50 | > 50 | – |
| CC(=O)O[C@H]1[C@@H](n2ccnn2)C[C@H]2[C@@H]3CC[C@H]4C[C@@H](N(C)c5ccccc5)CC[C@]4(C)[C@H]3CC[C@@]21C | 9.35 | 72.1 | > 50 | 18.9 | 11.7 | – |
| CC(=O)O[C@H]1[C@@H](n2ccnn2)C[C@H]2[C@@H]3CC[C@H]4C[C@@H](N(C)Cc5ccccc5)CC[C@]4(C)[C@H]3CC[C@@]21C | 8.43 | > 50 | > 50 | 11.4 | 15.2 | – |
| CC(=O)O[C@H]1[C@@H](n2nnc3ccccc32)C[C@H]2[C@@H]3CC[C@H]4C[C@@H](N5CCCC5)CC[C@]4(C)[C@H]3CC[C@@]21C | > 50 | > 50 | > 50 | > 50 | > 50 | – |
| CC(=O)O[C@H]1[C@@H](n2nnc3ccccc32)C[C@H]2[C@@H]3CC[C@H]4C[C@@H](N5CCCCC5)CC[C@]4(C)[C@H]3CC[C@@]21C | > 50 | 29.6 | > 50 | 22.7 | > 50 | – |
| CC(=O)O[C@H]1[C@@H](n2nnc3ccccc32)C[C@H]2[C@@H]3CC[C@H]4C[C@@H](N5CCN(C)CC5)CC[C@]4(C)[C@H]3CC[C@@]21C | 31.7 | > 50 | 18.9 | 8.99 | 22 | – |
| CC(=O)O[C@H]1[C@@H](n2nnc3ccccc32)C[C@H]2[C@@H]3CC[C@H]4C[C@@H](N5CCOCC5)CC[C@]4(C)[C@H]3CC[C@@]21C | > 50 | 19.8 | > 50 | 12.2 | > 50 | – |
| CCN(CC)[C@H]1CC[C@@]2(C)[C@@H](CC[C@@H]3[C@@H]2CC[C@@]2(C)[C@H]3C[C@H](n3nnc4ccccc43)[C@@H]2OC(C)=O)C1 | > 50 | > 50 | > 50 | > 50 | 37.2 | – |
| CC(=O)O[C@H]1[C@@H](n2nnc3ccccc32)C[C@H]2[C@@H]3CC[C@H]4C[C@@H](N(C)c5ccccc5)CC[C@]4(C)[C@H]3CC[C@@]21C | 6.36 | 10.4 | 18.6 | 5.12 | 9.83 | > 80 |
| CC(=O)O[C@H]1[C@@H](n2nnc3ccccc32)C[C@H]2[C@@H]3CC[C@H]4C[C@@H](N(C)Cc5ccccc5)CC[C@]4(C)[C@H]3CC[C@@]21C | 5.54 | 11.3 | > 50 | 7.72 | 26.2 | 48.7 |
| CC(=O)O[C@H]1[C@@H](n2cnc3ccccc32)C[C@H]2[C@@H]3CC[C@H]4C[C@@H](N5CCCC5)CC[C@]4(C)[C@H]3CC[C@@]21C | > 50 | > 50 | > 50 | 39.6 | 37.1 | – |
| CC(=O)O[C@H]1[C@@H](n2cnc3ccccc32)C[C@H]2[C@@H]3CC[C@H]4C[C@@H](N5CCCCC5)CC[C@]4(C)[C@H]3CC[C@@]21C | 29.6 | > 50 | > 50 | > 50 | 18.7 | – |
| CC(=O)O[C@H]1[C@@H](n2cnc3ccccc32)C[C@H]2[C@@H]3CC[C@H]4C[C@@H](N5CCOCC5)CC[C@]4(C)[C@H]3CC[C@@]21C | > 50 | > 50 | > 50 | 16.1 | 12.3 | – |
| CC(=O)O[C@H]1[C@@H](n2cnc3ccccc32)C[C@H]2[C@@H]3CC[C@H]4C[C@@H](N5CCN(C)CC5)CC[C@]4(C)[C@H]3CC[C@@]21C | 11.7 | > 50 | > 50 | 22.4 | 14.9 | – |
| CCN(CC)[C@H]1CC[C@@]2(C)[C@@H](CC[C@@H]3[C@@H]2CC[C@@]2(C)[C@H]3C[C@H](n3cnc4ccccc43)[C@@H]2OC(C)=O)C1 | 22.1 | > 50 | > 50 | > 50 | 29.8 | – |
| CC(=O)O[C@H]1[C@@H](n2cnc3ccccc32)C[C@H]2[C@@H]3CC[C@H]4C[C@@H](N(C)c5ccccc5)CC[C@]4(C)[C@H]3CC[C@@]21C | > 50 | 4.51 | 9.22 | 28.4 | 6.67 | > 80 |
| CC(=O)O[C@H]1[C@@H](n2cnc3ccccc32)C[C@H]2[C@@H]3CC[C@H]4C[C@@H](N(C)Cc5ccccc5)CC[C@]4(C)[C@H]3CC[C@@]21C | 5.14 | 6.04 | 15.8 | 4.22 | 11.9 | > 80 |
| COc1cccc2c1C(=O)c1c(O)c3c(c(O)c1C2=O)C[C@@](O)(C(=O)CO)C[C@@H]3O[C@H]1C[C@H](N)[C@H](O)[C@H](C)O1 [DOXORUBICIN] | – | 0.23 | 0.06 | – | 0.45 | – |
